Test results from the Deep4Chem optical property database.
“And” between values parts separate entries of the source, which are not always exact repeats. Equal entries are not always repeated. One block for each compound: values may come before it.

Experiment: solvent given as SMILES

- absorption maximum (in ClC(Cl)Cl): 673 nm and 672 nm
SMILES: COc1ccc(-c2cc3c(o2)=CC2=Cc4cc5oc(-c6ccc(OC)cc6)cc5n4[B-](F)(F)[N+]=32)cc1

- absorption maximum (in CS(C)=O): 358 nm
SMILES: COc1cc(-c2nc3sc4ccccc4c3s2)cc(OC)c1OC

- absorption maximum (in C1CCCCC1): 265.82 nm
SMILES: COc1ccc(-c2ccccc2)cc1

- absorption maximum (in C1CCOC1): 431 nm
SMILES: CCN(CC)c1ccc(C(=C(c2ccc(B(c3c(C)cc(C)cc3C)c3c(C)cc(C)cc3C)cc2)c2ccc(B(c3c(C)cc(C)cc3C)c3c(C)cc(C)cc3C)cc2)c2ccc(N(CC)CC)cc2)cc1

- absorption maximum (in ClCCl): 396 nm
SMILES: CC(C)(C)c1ccc2c(c1)c1cc(C(C)(C)C)ccc1n2-c1ccc(N(c2ccc(-c3ccc(-c4ccc(N(c5ccc(-n6c7ccc(C(C)(C)C)cc7c7cc(C(C)(C)C)ccc76)cc5)c5ccc(-n6c7ccc(C(C)(C)C)cc7c7cc(C(C)(C)C)ccc76)cc5)cc4)s3)cc2)c2ccc(-n3c4ccc(C(C)(C)C)cc4c4cc(C(C)(C)C)ccc43)cc2)cc1

SMILES: O=C(c1ccccc1)c1cc2ccc1CCc1ccc(cc1-c1ccc(N(c3ccccc3)c3ccccc3)cc1)CC2
- absorption maximum (in Cc1ccccc1): 311 nm

- absorption maximum (in ClC(Cl)Cl): 362 nm
SMILES: COc1ccc2cc(-c3ccc(-c4cc5ccc(OC)cc5oc4=O)cc3)c(=O)oc2c1

- absorption maximum (in CC#N): 510 nm
- absorption maximum (in CCCCCC): 513 nm
- absorption maximum (in CCOC(C)=O): 512 nm
- absorption maximum (in CO): 511 nm
- absorption maximum (in ClCCl): 515 nm
SMILES: COC1=[N+]2C(=C(c3ccccc3)c3ccc(OC)n3[B-]2(F)F)C=C1

- absorption maximum (in CCCCCC): 250 nm
SMILES: CCSSCC

- absorption maximum (in ClC(Cl)Cl): 526 nm
SMILES: CC(C)(C)[Si](C)(C)C#Cc1c2c(=O)c3ccccc3c2c(C#C[Si](C)(C)C(C)(C)C)c2c(=O)c3ccccc3c12

SMILES: c1ccc(C(=C(c2ccccc2)c2ccc(-c3nc4c(-c5ccc(C(=C(c6ccccc6)c6ccccc6)c6ccccc6)cc5)sc(-c5ccc(C(=C(c6ccccc6)c6ccccc6)c6ccccc6)cc5)c4nc3-c3ccc(C(=C(c4ccccc4)c4ccccc4)c4ccccc4)cc3)cc2)c2ccccc2)cc1
- absorption maximum (in Cc1ccccc1): 538 nm
- absorption maximum (in ClCCl): 520 nm

- absorption maximum (in CC#N): 293 nm
- absorption maximum (in CO): 293 nm
- absorption maximum (in O): 292 nm
SMILES: CNCCCC1c2ccccc2C=Cc2ccccc21

SMILES: c1ccc(C2CCN3COc4c5ccccc5c5c6c7c(c2c3c46)C(c2ccccc2)CCN7CO5)cc1 (configuration not stated)
- absorption maximum (in C1CCCCC1): 403 nm
- absorption maximum (in C1CCOC1): 405 nm
- absorption maximum (in C1COCCO1): 405 nm
- absorption maximum (in CC#N): 405 nm
- absorption maximum (in CC(C)=O): 406 nm
- absorption maximum (in CCOC(C)=O): 404 nm
- absorption maximum (in CCOCC): 404 nm
- absorption maximum (in CN(C)C=O): 407 nm
- absorption maximum (in CO): 402 nm
- absorption maximum (in CS(C)=O): 408 nm
- absorption maximum (in Cc1ccccc1): 406 nm
- absorption maximum (in ClC(Cl)Cl): 404 nm
- absorption maximum (in ClCCl): 405 nm

- absorption maximum (in ClCCl): 383 nm
SMILES: N#Cc1ccc(-c2cn3cc(-c4ccccc4)c[n+]3[n-]2)cc1

- absorption maximum (in CC#N): 440 nm
SMILES: Cc1cccc2c1nc1c(=O)n(C)c(=O)nc-1n2C

SMILES: CC1=CC(C)=[N+]2C1=C(c1c3ccccc3c(-c3ccccc3)c3ccccc13)c1c(C)cc(C)n1[B-]2(F)F
- absorption maximum (in CC#N): 503 nm
- absorption maximum (in CCCCCC): 505 nm
- absorption maximum (in CCO): 504 nm
- absorption maximum (in CN(C)C=O): 507 nm
- absorption maximum (in Cc1ccccc1): 509 nm
- absorption maximum (in ClCCl): 507 nm

SMILES: CC(C)(C)c1ccc2c(c1)c1cc(C(C)(C)C)ccc1n2-c1ccc(C#Cc2cccc(C#Cc3ccc(-n4c5ccc(C(C)(C)C)cc5c5cc(C(C)(C)C)ccc54)cc3)c2)cc1
- absorption maximum (in CC#N): 340 nm
- absorption maximum (in CCCCC): 340 nm
- absorption maximum (in CO): 338 nm
- absorption maximum (in Cc1ccccc1): 345 nm
- absorption maximum (in ClC(Cl)Cl): 344 nm
- absorption maximum (in ClCCl): 345 nm

- absorption maximum (in ClCCl): 437 nm
SMILES: CCCCCCCCCCCCN1C(=O)c2c(c3ccc4cc(-c5ccc(-c6ccccc6)cc5)c(OC)cc4c3c3c2ccc2cc(-c4ccc(-c5ccccc5)cc4)c(OC)cc23)C1=O

- absorption maximum (in ClCCl): 538 nm
SMILES: CC[B-]1(CC)c2cccc3c4c5c(cccc5c(c23)-c2cccc(C)[n+]21)[B-](CC)(CC)[n+]1c(C)cccc1-4

- absorption maximum (in CC#N): 655 nm
SMILES: F[B-]1(F)n2c(-c3ccccc3)cc(-c3ccccn3)c2N=C2C(c3ccccn3)=CC(c3ccccc3)=[N+]21

- absorption maximum (in ClCCl): 654 nm
SMILES: Cc1ccc(C#Cc2c3cc4ccccc4cc3c(C#C[Si](C(C)C)(C(C)C)C(C)C)c3cc4ccccc4cc23)cc1

- absorption maximum (in C1CCCCC1): 320 nm
- absorption maximum (in CO): 320 nm
SMILES: C/C(=C\c1ccc(Cl)cc1)c1nc2ccccc2s1

- absorption maximum (in C1CCOC1): 419 nm
SMILES: CC(C)(C)c1ccc(C2=C(c3ccc(-n4c5ccccc5c5ccccc54)cc3)S(=O)(=O)c3c2sc(-c2ccc(-n4c5ccccc5c5ccccc54)cc2)c3-c2ccc(C(C)(C)C)cc2)cc1

- absorption maximum (in C1CCOC1): 359 nm
- absorption maximum (in C1COCCO1): 359 nm
- absorption maximum (in CC#N): 358 nm
- absorption maximum (in CC(C)O): 357 nm
- absorption maximum (in CCO): 357 nm
- absorption maximum (in CCOC(C)=O): 357 nm
- absorption maximum (in CN(C)C=O): 361 nm
- absorption maximum (in CO): 357 nm
- absorption maximum (in CS(C)=O): 364 nm
- absorption maximum (in O): 359 nm
SMILES: NS(=O)(=O)c1ccc(N2N=C(c3ccc(O)cc3)CC2c2ccccc2)cc1 (configuration not stated)

- absorption maximum (in ClC(Cl)Cl): 430 nm
SMILES: CN1CCc2cc(C3=Cc4cccc[n+]4[B-](F)(F)O3)ccc21

- absorption maximum (in C1COCCO1): 450 nm
SMILES: CC(=O)Nc1ccc(C2=C/C(=C\c3ccc(C#N)cc3)C(=O)N2CC(C)C)cc1

SMILES: O=S1(=O)C2=C(c3ccc(N(c4ccccc4)c4ccccc4)cc31)C1(C3=C(c4ccccc41)S(=O)(=O)c1cc(N(c4ccccc4)c4ccccc4)ccc13)c1ccccc12
- absorption maximum (in C1CCOC1): 443 nm
- absorption maximum (in CC#N): 446 nm
- absorption maximum (in CCCCCC): 434 nm
- absorption maximum (in Cc1ccccc1): 450 nm
- absorption maximum (in ClCCl): 451 nm

SMILES: CCCCN1C(=S)c2cccc3cccc(c23)C1=S
- absorption maximum (in CC#N): 437 nm
- absorption maximum (in CS(C)=O): 443 nm
- absorption maximum (in Cc1ccccc1): 442 nm

- absorption maximum (in CCO): 437 nm
SMILES: CC(NC(=O)OC(C)(C)C)C(=O)OCc1ccc2c3cccc4cccc(c5cccc1c52)c43 (configuration not stated)

SMILES: O=Cc1cc(O)c(C=O)cc1O
- absorption maximum (in C1CCOC1): 414 nm
- absorption maximum (in C1COCCO1): 414 nm
- absorption maximum (in CC#N): 413 nm
- absorption maximum (in CC(C)=O): 413 nm
- absorption maximum (in CCCO): 415 nm
- absorption maximum (in CCO): 413 nm
- absorption maximum (in CN(C)C=O): 414 nm
- absorption maximum (in CN(C)P(=O)(N(C)C)N(C)C): 427 nm
- absorption maximum (in CNC=O): 377 nm
- absorption maximum (in CO): 384 nm
- absorption maximum (in CS(C)=O): 417 nm
- absorption maximum (in NC=O): 356 nm

- absorption maximum (in C1CCCCC1): 362 nm
SMILES: CCCC1(CCC)c2cc(-c3ccc4c(c3)C(CCC)(CCC)c3cc(-c5ccc6c(c5)C(CCC)(CCC)c5cc(C(C)(C)CC)ccc5-6)ccc3-4)ccc2-c2ccc(-c3ccc4c(c3)C(CCC)(CCC)c3cc(C(C)(C)CC)ccc3-4)cc21

- absorption maximum (in ClCCl): 260 nm
SMILES: Cn1nc(-c2ccc(C(F)(F)F)cc2)cc1-c1ccccc1

- absorption maximum (in ClCCl): 338 nm
SMILES: Clc1ccc(-c2cccc3ncc(-c4ccccc4)n23)cc1

- absorption maximum (in ClC(Cl)Cl): 425 nm
- absorption maximum (in O): 421 nm
SMILES: C/C=C/C=C/C1=NC(=C\c2ccc(O)cc2)/C(=O)N1C

- absorption maximum (in O): 323 nm
SMILES: Cc1cn(C)c(=O)nc1-n1cncn1

- absorption maximum (in ClCCl): 422 nm
SMILES: CC(C)(C)c1ccc2c(c1)c1cc(C(C)(C)C)ccc1n2-c1ccc(N(c2ccc(-c3ccc(-c4ccc(-c5ccc(-c6ccc(N(c7ccc(-n8c9ccc(C(C)(C)C)cc9c9cc(C(C)(C)C)ccc98)cc7)c7ccc(-n8c9ccc(C(C)(C)C)cc9c9cc(C(C)(C)C)ccc98)cc7)cc6)cc5)c5nsnc45)cc3)cc2)c2ccc(-n3c4ccc(C(C)(C)C)cc4c4cc(C(C)(C)C)ccc43)cc2)cc1

SMILES: CC1(C)c2ccccc2N(c2ccc3nc4c5ccc(N6c7ccccc7C(C)(C)c7ccccc76)cc5c5cc(N6c7ccccc7C(C)(C)c7ccccc76)ccc5c4nc3c2)c2ccccc21
- absorption maximum (in Cc1ccccc1): 456 nm

- absorption maximum (in C1CCCCC1): 300 nm
SMILES: C[SiH](C)c1ccc([SiH](C)C)c2ccccc12

SMILES: F[B-]1(F)Oc2ccccc2-c2cc(-n3c4ccc(-c5ccccc5)cc4c4cc(-c5ccccc5)ccc43)cc[n+]21
- absorption maximum (in Cc1ccccc1): 374 nm

SMILES: CCCCCCCC[n+]1ccc(-c2cc[n+](CCCCCCCC)cc2)cc1
- absorption maximum (in CC#N): 264 nm

SMILES: CCN(CC)c1ccc(/C=C/C2=[O+][B-](F)(F)Oc3c2c(=O)oc2cc(N(CC)CC)ccc32)cc1
- absorption maximum (in C1CCCCC1): 542 nm
- absorption maximum (in C1COCCO1): 569 nm
- absorption maximum (in CC#N): 589 nm
- absorption maximum (in CC(C)=O): 584 nm
- absorption maximum (in CCO): 581 nm
- absorption maximum (in CCOC(C)=O): 571 nm
- absorption maximum (in CO): 582 nm
- absorption maximum (in CS(C)=O): 607 nm
- absorption maximum (in Cc1ccccc1): 567 nm
- absorption maximum (in ClC(Cl)Cl): 581 nm
- absorption maximum (in ClCCl): 587 nm
- absorption maximum (in OCC(O)CO): 610 nm
- absorption maximum (in OCCO): 605 nm

SMILES: Cc1ccc(N2C(c3ccccc3N(C)C)=NC(c3ccccc3)C2c2ccccc2)cc1 (configuration not stated)
- absorption maximum (in Cc1ccccc1): 275 nm

- absorption maximum (in CC(C)O): 532 nm
- absorption maximum (in CCO): 532 nm
- absorption maximum (in CO): 526 nm
- absorption maximum (in O): 521 nm
SMILES: O=C([O-])c1ccccc1-c1c2cc(I)c(=O)c(I)c-2oc2c(I)c([O-])c(I)cc12

- absorption maximum (in C1CCOC1): 463 nm
SMILES: CC(C)(C)c1ccc(C2=C(c3ccc(N(c4ccccc4)c4ccccc4)cc3)S(=O)(=O)c3c2sc(-c2ccc(N(c4ccccc4)c4ccccc4)cc2)c3-c2ccc(C(C)(C)C)cc2)cc1

- absorption maximum (in C1CCCCC1): 336 nm
SMILES: COc1ccc(C2=C(c3ccc(OC)cc3)C(C)(C)c3ccc4ccccc4c32)cc1

SMILES: O=C1O[B-]2(OC1=O)OC(c1ccccc1)=CC(c1ccccc1)=[O+]2
- absorption maximum (in CC#N): 384 nm
- absorption maximum (in ClC(Cl)(Cl)Cl): 384 nm

- absorption maximum (in ClCCl): 342 nm
SMILES: c1ccc(-n2c3ccccc3c3cc([Si](c4ccccc4)(c4ccccc4)c4ccc5c(c4)c4ccccc4n5-c4ccccc4)ccc32)cc1

- absorption maximum (in CC#N): 338 nm
- absorption maximum (in CCCCCC): 336 nm
SMILES: c1ccc2c(c1)[nH]c1ncccc12

- absorption maximum (in C1CCCCC1): 396 nm
- absorption maximum (in CO): 397 nm
- absorption maximum (in CS(C)=O): 397 nm
- absorption maximum (in ClC(Cl)Cl): 398 nm
- absorption maximum (in c1ccccc1): 397 nm
SMILES: CCOC(=O)CCCn1c(C(=O)OC)c(C)c2c(=O)n3c(cc21)C(CC)=C(C)C3=O
